# Earlier results as cited in PMC10055906 (Chemical Science, 2023).
# Target: FGF2 (Homo sapiens, UniProt P09038)
# Conditions: read-out: KD (FGF2 affinity)
# FGF2, sequence (P09038 134-288): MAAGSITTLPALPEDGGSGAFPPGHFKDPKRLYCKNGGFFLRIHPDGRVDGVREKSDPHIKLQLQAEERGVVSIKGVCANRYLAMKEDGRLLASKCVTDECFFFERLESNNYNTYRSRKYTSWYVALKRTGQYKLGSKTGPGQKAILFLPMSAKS
substance,measurement,value
IdoA-GlcNS(6S)-IdoA(2S)-GlcNS(6S),Kd,1.2 µM
